Source: the supplement of paper PMC10307832

How the values were obtained:
Assay in all cases: relative viability (nuclei count vs DMSO), 5 days (fraction); higher = more cells survive
EHT 1864 + Trametinib = compound: C1COCCN1CC2=CC(=O)C(=CO2)OCCCCCSC3=C4C=CC(=CC4=NC=C3)C(F)(F)F [EHT 1864] + CC(=O)Nc1cccc(-n2c(=O)n(C3CC3)c(=O)c3c(Nc4ccc(I)cc4F)n(C)c(=O)c(C)c32)c1 [Trametinib] (partner 0.02 µM)
Method in brief: (§1)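 Lung cancer cell lines, seeded in 1536-well plates, were treated the following day by pin tool with a single drug or with five library-drug doses (not always all listed) in √10 steps on top of a fixed anchor-drug dose. Cells were fixed and nuclei stained in one step after 5 days, and nuclei were counted. Relative viability is the nuclei count for treated wells divided by that for vehicle wells, reported as medians of duplicate plates.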

EHT 1864 + OSI-027 = compound: C1COCCN1CC2=CC(=O)C(=CO2)OCCCCCSC3=C4C=CC(=CC4=NC=C3)C(F)(F)F [EHT 1864] + COc1cccc2cc(-c3nc([C@H]4CC[C@H](C(=O)O)CC4)n4ncnc(N)c34)[nH]c12 [OSI-027] (partner 0.5 µM)
Method in brief: as §1

EHT 1864 + Lapatinib = compound: C1COCCN1CC2=CC(=O)C(=CO2)OCCCCCSC3=C4C=CC(=CC4=NC=C3)C(F)(F)F [EHT 1864] + CS(=O)(=O)CCNCc1ccc(-c2ccc3ncnc(Nc4ccc(OCc5cccc(F)c5)c(Cl)c4)c3c2)o1 [Lapatinib] (partner 2 µM)
Method in brief: as §1

EHT 1864 + Linsitinib = compound: C1COCCN1CC2=CC(=O)C(=CO2)OCCCCCSC3=C4C=CC(=CC4=NC=C3)C(F)(F)F [EHT 1864] + C[C@]1(O)C[C@@H](c2nc(-c3ccc4ccc(-c5ccccc5)nc4c3)c3c(N)nccn32)C1 [Linsitinib] (partner 1 µM)
Method in brief: as §1

Cell Line	relative viability (EHT 1864 + Trametinib; first compound 0.04 µM)	relative viability (EHT 1864 + Trametinib; first compound 0.1265 µM)	relative viability (EHT 1864 + Trametinib; first compound 0.4 µM)	relative viability (EHT 1864 + Trametinib; first compound 1.265 µM)	relative viability (EHT 1864 + Trametinib; first compound 4 µM)	relative viability (EHT 1864 + OSI-027; first compound 0.04 µM)	relative viability (EHT 1864 + OSI-027; first compound 0.1265 µM)	relative viability (EHT 1864 + OSI-027; first compound 0.4 µM)	relative viability (EHT 1864 + OSI-027; first compound 1.265 µM)	relative viability (EHT 1864 + OSI-027; first compound 4 µM)	relative viability (EHT 1864 + Lapatinib; first compound 0.04 µM)	relative viability (EHT 1864 + Lapatinib; first compound 0.1265 µM)	relative viability (EHT 1864 + Lapatinib; first compound 0.4 µM)	relative viability (EHT 1864 + Lapatinib; first compound 1.265 µM)	relative viability (EHT 1864 + Lapatinib; first compound 4 µM)	relative viability (EHT 1864 + Linsitinib; first compound 0.04 µM)	relative viability (EHT 1864 + Linsitinib; first compound 0.1265 µM)	relative viability (EHT 1864 + Linsitinib; first compound 0.4 µM)	relative viability (EHT 1864 + Linsitinib; first compound 1.265 µM)	relative viability (EHT 1864 + Linsitinib; first compound 4 µM)
HCC-78	0.633	0.66	0.842	0.645	0.777	0.373	0.337	0.305	0.37	0.375	0.875	0.525	0.382	0.345	1.05	0.555	0.452	0.394	0.486	0.809
HCC-366	0.38	0.3	0.318	0.413	0.285	0.805	0.603	0.939	0.872	0.935	1.02		0.929	1.04	0.992	0.647		0.699	0.598	0.522
HCC-827	0.618	0.611	0.597	0.555	0.548	0.733	0.646	0.732	0.7	0.657	0.233	0.204	0.219	0.164	0.191	0.953	0.858	1.01	0.926	0.876
HOP-62	0.4		0.362	0.38	0.415	0.783		0.851	0.825	0.907	1.07		1.01	1.09	1.18	1.13		0.865	0.943	1.03
IA-LM											0.704		0.74		0.622	0.524	0.325	0.572	0.463	0.644
LC-2-ad	0.91	0.816	0.895	0.868	0.79	0.808		1	0.98	0.788	0.993		0.954	0.904	0.835	0.862		0.806	0.804	0.79
LCLC-97TM1	0.2	0.178	0.193	0.183	0.236	0.429	0.583	0.339	0.568	0.517	1.03		0.527	1.22	1.12	0.202		0.148	0.168	0.233
LCLC-103H	0.701	0.612	0.655	0.588	0.55	0.454	0.365	0.461	0.44	0.413						1.12	0.83	1.01	1.09	1.39
LK-2	0.673	0.48	0.719	0.596	1.02	0.243	0.154	0.227	0.188	0.187	1.05	0.797	0.911	1.03	0.881	0.543	0.527	0.538	0.623	0.724
LOU-NH91	0.757	0.747	0.802	0.761	0.74	0.721	0.572	0.768	0.777	0.66	0.769	0.746	0.802	0.81	0.797	0.975	0.875	1.06	1.1	0.767
LU99A	0.531	0.428	0.487	0.452	0.565	0.354	0.212	0.327	0.29	0.278	1.02	0.64	0.873	1.17	0.949	0.514	0.4	0.5	0.607	0.539
LXF-289	0.676	0.609	0.615	0.616	0.657	0.848	0.738	0.769	0.775	0.713	0.883	0.821	0.883	0.851	0.799	0.926	0.929	0.883	0.898	0.821
NCI-H441	0.365		0.544	0.573	0.51	0.685	0.511	0.414	0.581	0.734						0.517	0.574	0.503	0.461	0.561
NCI-H522	0.756	0.917	0.836	0.722	0.756	0.818	0.631	0.696	0.662	0.652										
NCI-H1299											0.969	0.904	0.949	0.931	0.909	0.903	0.877	0.981	0.969	0.936
NCI-H1563						0.735	0.796	0.763	0.701	0.699	1.01	0.986	0.953	0.949	0.813	1.17	1.3	1.24	1.17	0.94
NCI-H1648	0.545		0.44	0.4	0.607	0.273	0.29	0.242	0.23	0.255										
NCI-H1650	0.521	0.568	0.515	0.515	0.568			0.599	0.638	0.611	0.741	0.443	0.812	0.841	0.589					
NCI-H1703											0.796	0.857	1.21	1.01	0.854	0.725		0.931	0.789	0.647
NCI-H2170	0.893	0.779	0.911	0.886	0.911	0.787	0.582	0.803	0.795	0.702	0.272	0.268	0.283	0.239	0.271					
NCI-H2342	0.71	0.681	0.759	0.874	0.935	0.529	0.555	0.576	0.573	0.636										
